Data published in ChEMBL document CHEMBL6096634, “Exploration of novel 20S proteasome activators featuring anthraquinone structures and their application in hypoxic cardiomyocyte protection” (Bioorg Med Chem, 2024).
The source made the active and inactive calls. The calls are words filed in the database; no cut-off is given here.

How the values were obtained:
H9c2 = assay: Protection against hypoxia-induced cell damage in rat H9c2 cells at 0.025 uM incubated for 14 hrs by MTT assay; type: functional, cell-based
[1] = molecular target: T1, 20S proteasome (Homo sapiens) (UniProt P49721+P20618+P28074+P28062+P28065+P28072+P25786+P25787+P25788+P25789+P28066+P60900+O14818+Q8TAA3+P40306+A5LHX3+P49720+P28070+Q99436); assay: Activation of human erythrocyte-derived 20s proteosome using CT-L as peptide substrate at 10 uM by fluorescence based analysis relative to control; type: cell-based; conditions: filed as activator
[2] = molecular target: T1, 20S proteasome (Homo sapiens); assay: Activation of human erythrocyte-derived 20s proteosome using T-L as peptide substrate by fluorescence based analysis; type: cell-based; conditions: filed as activator
20S proteasome = assay: (§1) Activation of human erythrocyte-derived 20s proteosome using CT-L as peptide substrate by fluorescence based analysis; type: cell-based
[3] = molecular target: T1, 20S proteasome (Homo sapiens); assay: as §1; type: cell-based; conditions: for EC200: filed as activator
[4] = molecular target: T1, 20S proteasome (Homo sapiens); assay: Activation of 20s proteosome (unknown origin) mediated chymotrypsin-like activity assessed as fold maximum enhancement; type: protein-complex assay; conditions: filed as activator
[5] = molecular target: T1, 20S proteasome (Homo sapiens); assay: Activation of 20s proteosome (unknown origin) mediated chymotrypsin-like activity; type: protein-complex assay; conditions: filed as activator

| SMILES | Activity [1] | fold change (FC) [2] | EC50 (20S proteasome) | EC200 [3] | Activity [3] | fold change (FC) [4] | EC200 [5] | Activity (H9c2) |
| --- | --- | --- | --- | --- | --- | --- | --- | --- |
| CCCNc1cc(Nc2cccc(C)c2)c2c3c(onc13)-c1ccccc1C2=O | 594% | 10.6 | 4.36 µM | 0.4 µM |  |  |  |  |
| O=C1c2ccccc2-c2onc3c(NCN4CCCCC4)cc(NCN4CCCCC4)c1c23 | 78.4% |  |  |  | inactive |  |  |  |
| CCOC(=O)[C@]1(c2ccccc2)N=C(c2ccc(OC)cc2)N(Cc2ccccc2)[C@@H]1c1ccc(NCc2ccccc2)cc1 | 438% | 4.31 |  | 0.91 µM |  | 8.3 | 1.4 µM |  |
| Cc1ccc(Nc2cc(NCC(C)C)c3noc4c3c2C(=O)c2ccccc2-4)cc1 | 359% | 4.8 | 3 µM | 0.72 µM |  |  |  |  |
| COc1ccc(Nc2cc(NCC(C)C)c3noc4c3c2C(=O)c2ccccc2-4)cc1 | 276% | 3.54 | 3.02 µM | 0.7 µM |  |  |  |  |
| CC(C)CNc1cc(NC2CC2)c2c3c(onc13)-c1ccccc1C2=O | 361% | 4.71 | 3.3 µM | 1.41 µM |  |  |  |  |
| Cc1cccc(Nc2cc(NCCC(C)C)c3noc4c3c2C(=O)c2ccccc2-4)c1 | 175% | 2.08 | 2.09 µM | 0.19 µM |  |  |  |  |

More lines, main results first:

| Activity [1] | fold change (FC) [2] | EC50 (20S proteasome) | EC200 [3] | Activity [3] | fold change (FC) [4] | EC200 [5] | SMILES | Activity (H9c2) |
| --- | --- | --- | --- | --- | --- | --- | --- | --- |
| 552% | 6.36 | 1.8 µM | 0.2 µM |  |  |  | O=C(Nc1ccc(N2CCOCC2)cc1)c1cc(O)c2c(c1)C(=O)c1cccc(O)c1C2=O | Active |
| 567% | 6.5 | 2.26 µM | 1.67 µM |  |  |  | Cc1cccc(NC(=O)c2cc(O)c3c(c2)C(=O)c2cccc(O)c2C3=O)c1 |  |
| 68.6% |  |  |  | inactive |  |  | O=C(NCCN1CCOCC1)c1cc(O)c2c(c1)C(=O)c1cccc(O)c1C2=O |  |
| 696% | 8.91 | 2.05 µM | 0.32 µM |  |  |  | COc1ccc(NC(=O)c2cc(O)c3c(c2)C(=O)c2cccc(O)c2C3=O)cc1 |  |
| 350% | 3.79 | 4.02 µM | 1.14 µM |  |  |  | O=C1c2cccc(O)c2C(=O)c2c(O)cc(C(=O)N3CCc4ccccc4C3)cc21 |  |
